Measurements as given in patent US11891359B2, “Prenylated psilocybin derivatives and methods of using” (ENVERIC B[…] INC., priority 2021, dated 2024).

Key:
5-HT1A receptor = biological target: T1, 5-HT1A receptor (Homo sapiens, UniProt P08908); assay: cAMP-Glo assay in +5-HT1A cells (CHO-K1/5-HT1A/Gα15) with 4 μM forskolin; assay type: cell-based; details: for cAMP / luminescence response to varying dosage of test molecule: +5HT1A cell cultures, fixed 4 μM forskolin, FIGS. 14H-14L
T1 construct: host or cells: CHO-K1 (co-expressing Gα15)
T1 sequence (P08908 1-422): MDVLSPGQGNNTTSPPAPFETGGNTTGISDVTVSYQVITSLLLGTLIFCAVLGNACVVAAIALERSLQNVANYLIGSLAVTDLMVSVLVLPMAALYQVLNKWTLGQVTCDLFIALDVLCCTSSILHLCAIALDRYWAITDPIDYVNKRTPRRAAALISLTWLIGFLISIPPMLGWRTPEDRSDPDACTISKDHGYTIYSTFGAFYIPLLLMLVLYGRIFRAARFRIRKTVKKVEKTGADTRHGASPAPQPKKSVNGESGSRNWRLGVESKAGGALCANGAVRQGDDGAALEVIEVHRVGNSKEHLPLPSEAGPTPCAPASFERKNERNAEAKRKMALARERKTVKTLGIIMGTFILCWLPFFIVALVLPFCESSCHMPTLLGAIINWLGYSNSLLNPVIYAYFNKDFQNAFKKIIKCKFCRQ
From the text: (§1) CHO-K1/Gα15 (GenScript, M00257) (−5-HT1A) and CHO-K1/5-HT1A/Gα15 (GenScript, M00330) (+5-HT1A) cells lines were used. Briefly, CHO-K1/Gα15 is a control cell line that constitutively expresses Gα15 which is a promiscuous Gq protein. This control cell line lacks any transgene encoding 5-HT1A receptors, but still responds to forskolin; thus, cAMP response to forskolin should be the same regardless of whether or not 5-HT1A agonists are present. Conversely, CHO-K1/5-HT1A/Gα15 cells stably express 5-HT1A receptor in the CHO-K1 host background. […] In+5-HT1A cells, Gα15 may be recruited in place of Gαi/o, which could theoretically dampen cAMP response (Rojas and Fiedler 2016, Front Cell Neurosci 10: 272). […] Cells were maintained in complete growth media as recommended by supplier (GenScript) which is constituted as follows: Ham's F12 Nutrient mix (HAM's F12, GIBCO #11765-047) with 10% fetal bovine serum (FBS) (Thermo Scientific #12483020), 200 μg/ml zeocin (Thermo Scientific #R25005) and/or 100 μg/ml hygromycin (Thermo Scientific #10687010). The cells were cultured in a humidified incubator with 37° C. and 5% CO2. Cells maintenance was carried out as recommended by the cell supplier. Briefly, vials with cells were removed from the liquid nitrogen and thawed quickly in 37° C. water bath. Just before the cells were completely thawed the vial's outside was decontaminated by 70% ethanol spray. The cell suspension was then retrieved from the vial and added to warm (37° C.) complete growth media, and centrifuged at 1,000 rpm for 5 minutes. The supernatant was discarded, and the cell pellet was then resuspended in another 10 ml of complete growth media, and added to the 10 cm cell culture dish (Greiner Bio-One #664160). The media was changed every third day until the cells were about 90% confluent. The ˜90% confluent cells were then split 10:1 for maintenance or used for experiment.
As 5-HT1A activation inhibits cAMP formation, the agonist activity of test molecules on 5-HT1A was measured via the reduction in the levels of cAMP produced due to application of 4 μM forskolin. The change in intracellular cAMP levels due to the treatment of novel molecules was measured using cAMP-Glo Assay kit (Promega #V1501). Briefly, +5-HT1A cells were seeded on 1-6 columns and base −5-HT1A cells were seeded on columns 7-12 of the white walled clear bottom 96-well plate (Corning, #3903). Both cells were seeded at the density of 30,000 cells/well in 100 μl complete growth media and cultured 24 hrs in humidified incubator at 37° C. and 5% CO2. On the experiment day, the media of cells was replaced with serum/antibiotic free culture media. […] Reduced ATP caused reduced conversion of luciferin to oxyluciferin, conferring diminished luminescence as the result of 5-HT1A activation. […]

[1] = test system: CHO-K1/Gα15 (−5-HT1A) cells; assay: cAMP-Glo assay in −5-HT1A control cells (CHO-K1/Gα15) with 4 μM forskolin; assay type: cell-based; details: for trend of % cAMP levels with decreasing dosage of test molecule: −5HT1A cell cultures, fixed 4 μM forskolin
From the text: as §1, with “The supernatant was discarded, and the cell pellet was then resuspended in another 10 ml of complete growth media, and added to the 10 cm cell culture dish (Greiner Bio-One #664160). The media was changed every third day until the cells were about 90% confluent. The ˜90% confluent cells were then split 10:1 for maintenance or used for experiment.” left out
As 5-HT1A activation inhibits cAMP formation, the agonist activity of test molecules on 5-HT1A was measured via the reduction in the levels of cAMP produced due to application of 4 μM forskolin. The change in intracellular cAMP levels due to the treatment of novel molecules was measured using cAMP-Glo Assay kit (Promega #V1501). […] Reduced ATP caused reduced conversion of luciferin to oxyluciferin, conferring diminished luminescence as the result of 5-HT1A activation. […]

5-HT2A receptor = biological target: T2, 5-HT2A receptor (Homo sapiens, UniProt P28223); assay: [3H]ketanserin competition binding assay (Scintillation Proximity Assay) on membranes containing 5-HT2A; details: fixed 1 nM [3H]ketanserin; for competition binding curve result (binding / no binding): psilocin 30 pM to 10 μM, tryptophan 3 nM to 1 mM, FIGS. 14C, 14D
T2 construct: purchased PerkinElmer ES-313-M400UA
T2 sequence (P28223 whole entry): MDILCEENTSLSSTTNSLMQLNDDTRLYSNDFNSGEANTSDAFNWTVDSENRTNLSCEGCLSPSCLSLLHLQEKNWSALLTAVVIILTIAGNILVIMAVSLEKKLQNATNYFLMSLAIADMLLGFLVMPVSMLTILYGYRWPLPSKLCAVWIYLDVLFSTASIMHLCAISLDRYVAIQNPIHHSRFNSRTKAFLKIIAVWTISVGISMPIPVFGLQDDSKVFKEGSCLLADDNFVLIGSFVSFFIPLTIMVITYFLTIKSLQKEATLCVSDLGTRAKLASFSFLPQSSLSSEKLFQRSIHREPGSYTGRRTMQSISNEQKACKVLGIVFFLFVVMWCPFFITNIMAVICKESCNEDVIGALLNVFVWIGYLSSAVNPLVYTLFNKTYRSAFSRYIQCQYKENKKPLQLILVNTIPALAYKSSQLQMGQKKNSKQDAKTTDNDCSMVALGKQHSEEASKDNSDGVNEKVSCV
From the text: Evaluation of drug binding is an essential step to characterization of all drug-target interactions (Fang 2012, Exp Opin Drug Discov 7:969). The binding affinity of a drug to a target is traditionally viewed as an acceptable surrogate of its in vivo efficacy (Núñez et al., 2012, Drug Disc Today 17: 10). Competition assays, also called displacement or modulation binding assays, are a common approach to measure activity of a ligand at a target receptor (Flanagan 2016, Methods Cell Biol 132: 191). In these assays, standard radioligands acting either as agonists or antagonists are ascribed to specific receptors. In the case of G protein-coupled receptor 5-HT2A, [^3H]ketanserin is a well-established antagonist used routinely in competition assays to evaluate competitive activity of novel drug candidates at the 5-HT2A receptor (Maguire et al., 2012, Methods Mol Biol 897: 31). Thus, to evaluate activity of novel psilocybin derivatives at the 5-HT2A receptor, competition assays using [^3H]ketanserin were employed as follows. SPA beads (RPNQ0010), [^3H] ketanserin (NET1233025UC), membranes containing 5-HT2A (ES-313-M400UA), and isoplate-96 microplate (6005040) were all purchased from PerkinElmer. Radioactive binding assays were carried out using Scintillation Proximity Assay (SPA). […] After incubation, the samples were read on a MicroBeta 2 Microplate Counter (Perkin Elmer). […] Equilibrium binding constants for ketanserin (Kd) were determined from saturation binding curves using the ‘one-site saturation binding analysis’ method of GraphPad PRISM software (Version 9.2.0). […] Ki values were calculated from the competition displacement data using the competitive binding analysis from GraphPad PRISM software. […] Specific binding in counts per minute (cpm) was calculated by subtracting non-specific binding from total binding. Specific binding (pmol/mg) was calculated from pmol of [^3H]ketanserin bound per mg of protein in the assay. The Kd was calculated by fitting the data with the one-site binding model of PRISM software (version 9.2.0). […]

`CN(C)CCc1c[nH]c2ccccc12` [DMT, reference compound] was tested, and the “cAMP / luminescence response to varying dosage of test molecule” value (shortened to “cAMP / luminescence response”) (5-HT1A receptor) was 5-HT1A activity.
`CC(=O)NCCc1c[nH]c2cc(CC=C(C)C)ccc12` [compound (IV)] was tested, and the “modulation of the impact of serotonin on cAMP / luminescence” value (5-HT1A receptor; +5-HT1A cell cultures, fixed 4 μM forskolin and 10 uM serotonin, FIGS. 14M, 14N) was “modulated by the presence of compound (IV) in a concentration-dependent manner”, the “cAMP / luminescence response” value (5-HT1A receptor) was 5-HT1A modulation activity and the “modulation of the impact of serotonin on cAMP / luminescence” value ([1]; −5-HT1A cell cultures, fixed 4 μM forskolin and 10 uM serotonin, FIGS. 14M, 14N) was “not notable”. The “trend of % cAMP levels with decreasing dosage of test molecule” value [1] was “not observed” and the “specific binding of [3H]ketanserin in competition with test compound” value (5-HT2A receptor; unlabeled test compound 3 nM to 1 mM, competition not complete, FIGS. 14E, 14F) was about 50%.
`CN(C)CCc1c[nH]c2cccc(O)c12` [psilocin] was tested, and the “competition binding curve result (binding / no binding)” value (5-HT2A receptor) was “binding”.
In the case of `NCCc1c[nH]c2ccc(O)cc12` [serotonin, reference compound], the “cAMP / luminescence response” value (5-HT1A receptor) was 5-HT1A binding activity and the “trend of % cAMP levels with decreasing dosage of test molecule” value [1] was “not observed”.
In the case of `N[C@@H](Cc1c[nH]c2ccccc12)C(=O)O` [tryptophan], the “competition binding curve result (binding / no binding)” value (5-HT2A receptor) was “no binding”.
